Broadly, the IC50 is the point on the concentration scale where inhibition reaches its midpoint.

For one assay, the target named is T1, Human recombinant MMP-2 (Homo sapiens, UniProt P08253).
T1 construct: made in house; host or cells: MMP-2-transfected p2AHT2 cells
T1 sequence (P08253 110-660): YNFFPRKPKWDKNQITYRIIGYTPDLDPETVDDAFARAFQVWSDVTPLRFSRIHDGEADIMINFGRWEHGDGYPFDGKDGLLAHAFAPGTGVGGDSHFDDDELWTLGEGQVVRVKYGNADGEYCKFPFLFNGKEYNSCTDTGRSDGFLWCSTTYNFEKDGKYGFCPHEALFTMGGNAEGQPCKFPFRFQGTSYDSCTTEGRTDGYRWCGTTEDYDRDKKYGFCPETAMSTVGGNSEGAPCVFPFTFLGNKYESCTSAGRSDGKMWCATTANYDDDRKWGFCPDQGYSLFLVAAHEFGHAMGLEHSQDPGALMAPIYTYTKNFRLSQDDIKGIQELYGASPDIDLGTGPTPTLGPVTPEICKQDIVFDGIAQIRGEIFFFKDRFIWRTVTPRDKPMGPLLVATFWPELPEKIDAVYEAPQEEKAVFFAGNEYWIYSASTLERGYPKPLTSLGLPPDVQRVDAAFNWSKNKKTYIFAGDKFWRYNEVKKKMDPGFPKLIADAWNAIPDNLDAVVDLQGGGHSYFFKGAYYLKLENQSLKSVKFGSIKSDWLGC
As to the kind of experiment: In vitro MMP inhibition, IC50 determination (fluorogenic substrate I). Type of assay: biochemical. The conditions noted are these: value outside parentheses. The gist of the method: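 APMA- or trypsin-activated recombinant MMP-2 was incubated at room temperature with serial inhibitor dilutions in Tris buffer pH 7.5 (100 mM NaCl, 10 mM CaCl2, 0.05% Brij), with DMSO from 1% stocks, and 4 μM substrate I. Cleavage was read by fluorescence at 328/415 nm; IC50 was taken from the loss of fluorescence versus inhibitor concentration.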

Another assay addresses T2, Human recombinant MMP-13 (Homo sapiens, UniProt P45452).
T2 construct: made in house; host or cells: baculovirus / insect cells
The assay is described as above. Type of assay: biochemical. Particulars: value outside parentheses. The gist of the method: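 Fluorescence at 415 nm (excitation 328 nm) reports Gly-Leu cleavage of 4 μM quenched methoxycoumarin peptide substrate I. Human recombinant MMP-13, activated by trypsin or APMA, was incubated at room temperature with varied inhibitor concentrations in pH 7.5 Tris/NaCl/CaCl2 buffer; IC50 derived from reduced fluorescence.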

`O=C(NCCOc1ccc(S(=O)(=O)C2(C(=O)NO)CCOCC2)cc1)c1cc2ccccc2s1` [Example 619]: the IC50 was found to be 66.2 nM at Human recombinant MMP-2 and 1.5 nM on Human recombinant MMP-13.

Consider `O=C(NCCOc1ccc(S(=O)(=O)C2(C(=O)NO)CCOCC2)cc1)c1ccc(Br)s1` [Example 620], for which the half-maximal inhibitory concentration (IC50) on Human recombinant MMP-2 worked out at 16.2 nM; at Human recombinant MMP-13, 4.1 nM.

As to `O=C(NCCNc1ccc(S(=O)(=O)C2(C(=O)NO)CCOCC2)cc1)c1cc2ccccc2o1` [Example 621], the IC50 on Human recombinant MMP-2 is 368 nM; on Human recombinant MMP-13 it was 17.8 nM.

As for `CC(C)Cc1cccc(CCCOc2ccc(S(=O)(=O)C3(C(=O)NO)CCOCC3)cc2)c1` [Example 640], the IC50 on Human recombinant MMP-2 was determined as 324 nM; at Human recombinant MMP-13, 10.4 nM.

In the case of `O=C(NO)C1(S(=O)(=O)c2ccc(OCCCc3cccc(N4CCNCC4)c3)cc2)CCN(C2CC2)CC1` [Example 641], the IC50 on Human recombinant MMP-2 is 135 nM; at Human recombinant MMP-13, 5 nM.

Consider `O=C(COc1ccc(S(=O)(=O)C2(C(=O)NO)CCOCC2)cc1)Nc1cccc(-c2ccccc2)c1` [Example 642], for which the half-maximal inhibitory concentration (IC50) at Human recombinant MMP-2 came out at 2890 nM; on Human recombinant MMP-13, 36.9 nM.

In the case of `O=C(NCCCOc1ccc(S(=O)(=O)C2(C(=O)NO)CCN(C3CC3)CC2)cc1)C1C2CC3CC(C2)CC1C3` (stereo not shown) [Example 643], the figures for the IC50 at Human recombinant MMP-2 and at Human recombinant MMP-13 were 1130 nM and 11.4 nM, respectively.

As to `CN(CCCOc1ccc(S(=O)(=O)C2(C(=O)NO)CCN(C3CC3)CC2)cc1)C(=O)C1C2CC3CC(C2)CC1C3` (stereo not shown) [Example 644], the IC50 on Human recombinant MMP-2 was 2630 nM; on Human recombinant MMP-13 it was 20.9 nM.

These data come from US20040024024A1, “Aromatic sulfone hydroxamates and their use as protease inhibitors” (priority 2001, published 2004).
